What was measured:
αllbβ3 integrin = target: T1, αllbβ3 integrin (Homo sapiens, UniProt P05106+P08514); test: ELISA: inhibition of binding of αllbβ3 integrin membrane preparation to coated extracellular matrix protein; conditions: human platelet membrane preparation
T1 construct: Human platelet membrane preparations were used as a source of αllbβ3 integrin; from tissue; host or cells: human platelets (membrane preparation)
Procedure: (§1) An ELISA assay based on the published method of Bethert et al., 2000, J Biol Chem 275, 33308-23, was employed.
(§2) Briefly, appropriate microtitre plates were coated with either Fibrinogen or Vitronectin (10 μg/well). These extracellular matrix proteins contain the RGD amino acid sequence that is recognized by αllbβ3 integrin. Human platelet membrane preparations were used as a source of αllbβ3 integrin and the cell line WM-115 was used as a source of αVβ3 integrin. Inhibition of the binding of αllbβ3 integrin containing membrane preparations to the extracellular matrix protein was determined by pre-incubating the platelet membrane preparation with test or control compounds. The binding of the αllbβ3 integrin containing membrane was the quantitated by using a rabbit anti-integrinβ3 antibody, a horse radish peroxidase coupled second antibody and a standard colorimetric detection system.

αVβ3 integrin = target: T2, αVβ3 integrin (Homo sapiens, UniProt P05106+P06756); test: ELISA: inhibition of binding of αVβ3 integrin (source WM-115 cell line) to coated extracellular matrix protein; conditions: WM-115 cell line as integrin source
T2 construct: the cell line WM-115 was used as a source of αVβ3 integrin; endogenous in cells; host or cells: WM-115 cell line
T2 sequence (P06756 31-889 limits assumed): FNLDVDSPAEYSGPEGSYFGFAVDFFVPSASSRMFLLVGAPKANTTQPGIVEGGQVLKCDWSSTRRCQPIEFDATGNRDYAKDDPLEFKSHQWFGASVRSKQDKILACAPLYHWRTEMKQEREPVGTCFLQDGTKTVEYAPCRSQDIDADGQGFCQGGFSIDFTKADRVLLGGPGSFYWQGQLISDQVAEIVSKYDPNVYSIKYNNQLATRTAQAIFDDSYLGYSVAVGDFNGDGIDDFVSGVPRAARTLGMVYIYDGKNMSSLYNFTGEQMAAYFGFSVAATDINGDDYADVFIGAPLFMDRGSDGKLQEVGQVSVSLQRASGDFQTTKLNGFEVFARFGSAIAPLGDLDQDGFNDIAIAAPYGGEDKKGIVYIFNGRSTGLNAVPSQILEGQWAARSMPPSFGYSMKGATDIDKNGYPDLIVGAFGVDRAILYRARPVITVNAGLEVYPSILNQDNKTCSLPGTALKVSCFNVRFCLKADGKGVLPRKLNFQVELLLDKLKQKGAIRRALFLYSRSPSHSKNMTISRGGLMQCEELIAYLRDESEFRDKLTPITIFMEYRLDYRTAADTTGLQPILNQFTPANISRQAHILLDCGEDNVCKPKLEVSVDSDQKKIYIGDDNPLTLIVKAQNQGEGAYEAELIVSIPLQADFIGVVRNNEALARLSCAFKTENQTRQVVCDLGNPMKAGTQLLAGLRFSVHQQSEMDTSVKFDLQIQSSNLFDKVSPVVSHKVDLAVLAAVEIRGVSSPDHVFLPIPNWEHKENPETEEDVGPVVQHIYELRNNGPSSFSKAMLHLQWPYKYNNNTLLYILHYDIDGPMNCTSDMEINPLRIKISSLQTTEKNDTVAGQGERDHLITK
T2 sequence (P06756 891-1048 partner limits assumed): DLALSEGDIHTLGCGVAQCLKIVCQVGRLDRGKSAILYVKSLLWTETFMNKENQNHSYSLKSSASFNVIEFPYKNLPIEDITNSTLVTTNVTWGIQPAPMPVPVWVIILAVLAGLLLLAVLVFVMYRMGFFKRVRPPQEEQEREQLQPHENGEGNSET
T2 sequence (P05106 27-788): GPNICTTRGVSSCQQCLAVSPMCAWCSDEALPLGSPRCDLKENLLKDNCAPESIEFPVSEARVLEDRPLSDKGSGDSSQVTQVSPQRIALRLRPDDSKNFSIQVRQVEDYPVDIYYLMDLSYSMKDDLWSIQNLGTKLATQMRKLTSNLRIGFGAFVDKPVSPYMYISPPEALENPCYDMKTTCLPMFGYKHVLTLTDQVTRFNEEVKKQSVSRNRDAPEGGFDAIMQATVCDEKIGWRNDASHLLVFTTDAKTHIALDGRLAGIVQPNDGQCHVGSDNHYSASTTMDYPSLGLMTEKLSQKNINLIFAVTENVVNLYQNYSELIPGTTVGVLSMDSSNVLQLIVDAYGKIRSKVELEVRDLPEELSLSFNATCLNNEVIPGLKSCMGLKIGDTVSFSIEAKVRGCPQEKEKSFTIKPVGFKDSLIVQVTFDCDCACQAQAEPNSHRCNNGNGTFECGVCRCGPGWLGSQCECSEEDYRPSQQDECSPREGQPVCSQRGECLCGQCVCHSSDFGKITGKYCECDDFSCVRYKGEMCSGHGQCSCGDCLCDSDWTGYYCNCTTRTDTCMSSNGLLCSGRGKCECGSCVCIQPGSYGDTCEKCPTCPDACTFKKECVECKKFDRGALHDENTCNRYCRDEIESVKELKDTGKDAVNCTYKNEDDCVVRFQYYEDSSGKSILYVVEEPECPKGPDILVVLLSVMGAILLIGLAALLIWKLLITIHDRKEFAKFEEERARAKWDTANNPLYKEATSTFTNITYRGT
Procedure: as §1, §2

T1 sequence (P08514 32-887 limits assumed): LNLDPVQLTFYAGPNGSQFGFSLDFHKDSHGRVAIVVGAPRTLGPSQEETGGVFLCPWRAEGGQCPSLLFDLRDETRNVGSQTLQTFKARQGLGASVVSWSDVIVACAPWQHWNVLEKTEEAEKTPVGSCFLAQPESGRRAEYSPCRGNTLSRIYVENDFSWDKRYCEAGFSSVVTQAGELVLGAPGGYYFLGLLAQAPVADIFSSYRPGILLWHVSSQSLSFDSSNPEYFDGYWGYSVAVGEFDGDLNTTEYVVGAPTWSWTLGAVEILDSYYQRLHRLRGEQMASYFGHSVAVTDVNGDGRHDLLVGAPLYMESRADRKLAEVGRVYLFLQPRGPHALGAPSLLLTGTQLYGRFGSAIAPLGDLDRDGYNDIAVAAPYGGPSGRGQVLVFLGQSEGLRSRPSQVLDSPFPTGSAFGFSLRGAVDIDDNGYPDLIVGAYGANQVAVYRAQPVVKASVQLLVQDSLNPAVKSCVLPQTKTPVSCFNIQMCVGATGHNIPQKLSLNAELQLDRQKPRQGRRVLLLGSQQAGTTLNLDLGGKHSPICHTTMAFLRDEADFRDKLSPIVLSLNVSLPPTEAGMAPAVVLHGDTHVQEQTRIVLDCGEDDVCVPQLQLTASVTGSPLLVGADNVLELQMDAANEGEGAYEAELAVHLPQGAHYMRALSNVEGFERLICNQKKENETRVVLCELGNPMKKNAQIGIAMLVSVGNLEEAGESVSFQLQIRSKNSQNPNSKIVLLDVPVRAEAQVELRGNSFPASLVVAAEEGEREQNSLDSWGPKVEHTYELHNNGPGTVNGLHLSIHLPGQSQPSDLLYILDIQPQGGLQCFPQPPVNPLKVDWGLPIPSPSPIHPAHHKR
T1 sequence (P08514 891-1039 partner limits assumed): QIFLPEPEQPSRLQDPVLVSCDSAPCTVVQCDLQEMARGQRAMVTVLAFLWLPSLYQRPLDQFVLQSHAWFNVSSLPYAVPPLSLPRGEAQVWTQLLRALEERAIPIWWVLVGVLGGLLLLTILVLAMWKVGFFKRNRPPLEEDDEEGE
T1 sequence (P05106 27-788): as the sequence (P05106 27-788) above

Structure (SMILES) | INHIBITION @ 250 uM RECEPTOR allBb3 SUBSTRATE FIBRINOGEN (αllbβ3 integrin) | INHIBITION 250 uM RECEPTOR allBb3 SUBSTRATE VITRONECTIN (αllbβ3 integrin) | INHIBITION 250 uM RECEPTOR aVb3 SUBSTRATE FIBRINOGEN (αVβ3 integrin)
Nc1cccc(C(=O)NC2C(O)OC(COCC(=O)O)C(O)C2OCc2ccc(Br)cc2)c1 (single isomer, unassigned) [Compound 1] | + (36% to 60% inhibition at 250 micromolar) | + (36% to 60% inhibition at 250 micromolar) | − (0% to 35% inhibition at 250 micromolar)
COC1OC(COCc2cccc(N)c2)C(O)C(OCc2ccc(Br)cc2)C1NC(=O)c1ccc(C(=O)O)cc1 (single isomer, unassigned) [Compound 3] | + (36% to 60% inhibition at 250 micromolar) | +++ (81% to 100% inhibition at 250 micromolar) | + (36% to 60% inhibition at 250 micromolar)
COC1OC(COCc2cccc(N)c2)C(O)C(OCc2ccc(Br)cc2)C1NC(=O)c1ccc(C(=O)O)cc1 (single isomer, unassigned) [Compound 4] | − (0% to 35% inhibition at 250 micromolar) | − (0% to 35% inhibition at 250 micromolar) | + (36% to 60% inhibition at 250 micromolar)
COC1OC(COCc2ccccc2)C(O)C(OCC(=O)O)C1NC(=O)c1cccc(N)c1 (single isomer, unassigned) [Compound 5] | ++ (61% to 80% inhibition at 250 micromolar) | +++ (81% to 100% inhibition at 250 micromolar) | ++ (61% to 80% inhibition at 250 micromolar)
COC1OC(COCc2ccccc2)C(O)C(OCC(=O)O)C1NC(=O)c1cccc(N)c1 (single isomer, unassigned) [Compound 6] | − (0% to 35% inhibition at 250 micromolar) | +++ (81% to 100% inhibition at 250 micromolar) | +++ (81% to 100% inhibition at 250 micromolar)
COC1OC(COCc2ccc(Br)cc2)C(O)C(OCC(=O)O)C1NC(=O)c1cccc(N)c1 (single isomer, unassigned) [Compound 7] | + (36% to 60% inhibition at 250 micromolar) | +++ (81% to 100% inhibition at 250 micromolar) | + (36% to 60% inhibition at 250 micromolar)
COC1OC(COCc2ccc(Br)cc2)C(O)C(OCC(=O)O)C1NC(=O)c1cccc(N)c1 (single isomer, unassigned) [Compound 8] | + (36% to 60% inhibition at 250 micromolar) | +++ (81% to 100% inhibition at 250 micromolar) | +++ (81% to 100% inhibition at 250 micromolar)
COC1OC(COCc2cccc(N)c2)C(O)C(OCC(=O)O)C1NC(=O)c1ccc(Cl)cc1 (single isomer, unassigned) [Compound 9] | + (36% to 60% inhibition at 250 micromolar) | +++ (81% to 100% inhibition at 250 micromolar) | +++ (81% to 100% inhibition at 250 micromolar)
COC1OC(COCc2cccc(N)c2)C(O)C(OCC(=O)O)C1NC(=O)c1ccc(Cl)cc1 (single isomer, unassigned) [Compound 10] | ++ (61% to 80% inhibition at 250 micromolar) | +++ (81% to 100% inhibition at 250 micromolar) | +++ (81% to 100% inhibition at 250 micromolar)
COC1OC(COCc2ccccc2)C(O)C(OCc2ccc(C(=O)O)cc2)C1NC(=O)CCNC(=N)N (single isomer, unassigned) [Compound 11] | + (36% to 60% inhibition at 250 micromolar) | +++ (81% to 100% inhibition at 250 micromolar) | + (36% to 60% inhibition at 250 micromolar)
COC1OC(COCc2ccccc2)C(O)C(OCc2ccc(C(=O)O)cc2)C1NC(=O)CCNC(=N)N (single isomer, unassigned) [Compound 12] | ++ (61% to 80% inhibition at 250 micromolar) | ++ (61% to 80% inhibition at 250 micromolar) | − (0% to 35% inhibition at 250 micromolar)
COC(=O)c1ccc(COC2C(O)C(COCc3ccccc3)OC(OC)C2NC(=O)CCNC(=N)N)cc1 (single isomer, unassigned) [Compound 13] | + (36% to 60% inhibition at 250 micromolar) | +++ (81% to 100% inhibition at 250 micromolar) | − (0% to 35% inhibition at 250 micromolar)
COC(=O)c1ccc(COC2C(O)C(COCc3ccccc3)OC(OC)C2NC(=O)CCNC(=N)N)cc1 (single isomer, unassigned) [Compound 14] | + (36% to 60% inhibition at 250 micromolar) | +++ (81% to 100% inhibition at 250 micromolar) | ++ (61% to 80% inhibition at 250 micromolar)
COC1OC(COCc2ccc(Br)cc2)C(O)C(OCc2ccc(C(=O)O)cc2)C1NC(=O)CCNC(=N)N (single isomer, unassigned) [Compound 15] | + (36% to 60% inhibition at 250 micromolar) | +++ (81% to 100% inhibition at 250 micromolar) | ++ (61% to 80% inhibition at 250 micromolar)
COC1OC(COCc2ccc(Br)cc2)C(O)C(OCc2ccc(C(=O)O)cc2)C1NC(=O)CCNC(=N)N (single isomer, unassigned) [Compound 16] | + (36% to 60% inhibition at 250 micromolar) | +++ (81% to 100% inhibition at 250 micromolar) | ++ (61% to 80% inhibition at 250 micromolar)
COC(=O)c1ccc(COC2C(O)C(COCc3ccc(Br)cc3)OC(OC)C2NC(=O)CCNC(=N)N)cc1 (single isomer, unassigned) [Compound 17] | + (36% to 60% inhibition at 250 micromolar) | +++ (81% to 100% inhibition at 250 micromolar) | +++ (81% to 100% inhibition at 250 micromolar)
COC1OC(COCc2cccc(N)c2)C(O)C(OCc2ccc(C(=O)O)cc2)C1NC(=O)c1ccccc1 (single isomer, unassigned) [Compound 18] | ++ (61% to 80% inhibition at 250 micromolar) | +++ (81% to 100% inhibition at 250 micromolar) | +++ (81% to 100% inhibition at 250 micromolar)
COC1OC(COCc2cccc(N)c2)C(O)C(OCc2ccc(C(=O)O)cc2)C1NC(=O)c1ccccc1 (single isomer, unassigned) [Compound 19] | ++ (61% to 80% inhibition at 250 micromolar) | +++ (81% to 100% inhibition at 250 micromolar) | +++ (81% to 100% inhibition at 250 micromolar)
COC1OC(COCc2ccccc2)C(O)C(OCc2cccc(N)c2)C1NC(=O)CCC(=O)O (single isomer, unassigned) [Compound 20] | +++ (81% to 100% inhibition at 250 micromolar) | +++ (81% to 100% inhibition at 250 micromolar) | +++ (81% to 100% inhibition at 250 micromolar)
COC1OC(COCc2ccccc2)C(O)C(OCc2cccc(N)c2)C1NC(=O)CCC(=O)O (single isomer, unassigned) [Compound 21] | +++ (81% to 100% inhibition at 250 micromolar) |  | +++ (81% to 100% inhibition at 250 micromolar)
Nc1cccc(COC2C(O)C(COCc3ccccc3)OC(O)C2NC(=O)CCC(=O)O)c1 (single isomer, unassigned) [Compound 22] | + (36% to 60% inhibition at 250 micromolar) | + (36% to 60% inhibition at 250 micromolar) | + (36% to 60% inhibition at 250 micromolar)
Nc1cccc(COC2C(O)C(COCc3ccccc3)OC(O)C2NC(=O)CCC(=O)O)c1 (single isomer, unassigned) [Compound 23] | ++ (61% to 80% inhibition at 250 micromolar) | +++ (81% to 100% inhibition at 250 micromolar) | − (0% to 35% inhibition at 250 micromolar)
COC1OC(COCc2ccc(Br)cc2)C(O)C(OCc2cccc(N)c2)C1NC(=O)CCC(=O)O (single isomer, unassigned) [Compound 24] | + (36% to 60% inhibition at 250 micromolar) | +++ (81% to 100% inhibition at 250 micromolar) | ++ (61% to 80% inhibition at 250 micromolar)

From patent publication US20080176936A1, “Classes of Compounds that Interact with Integrins” (priority 2005, published 2008)
